Common to all, as to type: functional, organism-based
Test [1] relates to Monilinia fructicola. As to the kind of experiment: Fungicidal activity against Monilinia fructicola isolate GADL133.04 infected peach fruit assessed as decrease in sporulation area at 0.112 ml/l applied 24 hr after inoculation after 5 days relative to untreated-control.
The subject of test [2] is Monilinia fructicola. As to the kind of experiment: Fungicidal activity against Monilinia fructicola isolate GADL133.04 infected peach fruit assessed as decrease in sporulation area at 0.112 ml/l applied 24 hr prior to inoculation after 5 days relative to untreated-control.
Test [3] deals with Monilinia fructicola. As to the kind of experiment: Fungicidal activity against Monilinia fructicola isolate SCDL71.01 infected peach fruit assessed as decrease in sporulation area at 0.112 ml/l applied 24 hr after inoculation after 5 days relative to untreated-control.
In test [4] the test system is Monilinia fructicola. In words: Fungicidal activity against Monilinia fructicola isolate SCDL71.01 infected peach fruit assessed as decrease in sporulation area at 0.112 ml/l applied 24 hr prior to inoculation after 5 days relative to untreated-control.
The subject of test [5] is Monilinia fructicola. As to the kind of experiment: Fungicidal activity against Monilinia fructicola isolate GADL193.04 infected peach fruit assessed as decrease in brown rot disease incidence at 0.112 ml/l applied 24 hr prior to inoculation after 5 days relative to untreated-control.
The subject of test [6] is Monilinia fructicola. As to the kind of experiment: Fungicidal activity against Monilinia fructicola isolate GADL133.04 infected peach fruit assessed as decrease in brown rot disease incidence at 0.112 ml/l applied 24 hr prior to inoculation after 5 days relative to untreated-control.
Test [7] concerns Monilinia fructicola. As to the kind of experiment: Fungicidal activity against Monilinia fructicola isolate SCDL71.01 assessed as reduction in colony diameter after 5 days.
Test [8] has as its system Monilinia fructicola. In words: Fungicidal activity against Monilinia fructicola isolate GADL193.04 infected peach fruit assessed as decrease in brown rot disease incidence at 0.112 ml/l applied 24 hr after inoculation after 5 days relative to untreated-control.
The subject of test [9] is Monilinia fructicola. As to the kind of experiment: Fungicidal activity against Monilinia fructicola isolate GADL133.04 infected peach fruit assessed as decrease in brown rot disease incidence at 0.112 ml/l applied 24 hr after inoculation after 5 days relative to untreated-control.
The test system of test [10] is Monilinia fructicola. As to the kind of experiment: Fungicidal activity against Monilinia fructicola isolate GADL133.04 assessed as reduction in colony diameter after 5 days.
Test [11] has as its system Monilinia fructicola. In words: Fungicidal activity against Monilinia fructicola isolate GADL193.04 assessed as reduction in colony diameter after 5 days.
For test [12], the system named is Monilinia fructicola. As to the kind of experiment: Fungicidal activity against Monilinia fructicola isolate SCDL71.01 infected peach fruit assessed as decrease in brown rot disease incidence at 0.112 ml/l applied 24 hr prior to inoculation after 5 days relative to untreated-control.
Test [13] deals with Monilinia fructicola. In words: Fungicidal activity against Monilinia fructicola isolate SCDL71.01 infected peach fruit assessed as decrease in brown rot disease incidence at 0.112 ml/l applied 24 hr after inoculation after 5 days relative to untreated-control.
Test [14] deals with Monilinia fructicola. In words: Fungicidal activity against Monilinia fructicola isolate GADL193.04 infected peach fruit assessed as decrease in sporulation area at 0.112 ml/l applied 24 hr after inoculation after 5 days relative to untreated-control.
Test [15] deals with Monilinia fructicola. As to the kind of experiment: Fungicidal activity against Monilinia fructicola isolate GADL193.04 infected peach fruit assessed as decrease in sporulation area at 0.112 ml/l applied 24 hr prior to inoculation after 5 days relative to untreated-control.
The subject of test [16] is Monilinia fructicola. In words: Fungicidal activity against Monilinia fructicola isolate SCDL71.01 infected peach fruit assessed as decrease in sporulation area at 0.135 ml/l applied 24 hr after inoculation after 5 days relative to untreated-control.
The test system of test [17] is Monilinia fructicola. As to the kind of experiment: Fungicidal activity against Monilinia fructicola isolate SCDL71.01 infected peach fruit assessed as decrease in sporulation area at 0.135 ml/l applied 24 hr prior to inoculation after 5 days relative to untreated-control.
Test [18] relates to Monilinia fructicola. In words: Fungicidal activity against Monilinia fructicola isolate GADL193.04 infected peach fruit assessed as decrease in brown rot disease incidence at 0.135 ml/l applied 24 hr after inoculation after 5 days relative to untreated-control.
Test [19] relates to Monilinia fructicola. As to the kind of experiment: Fungicidal activity against Monilinia fructicola isolate GADL133.04 infected peach fruit assessed as decrease in brown rot disease incidence at 0.135 ml/l applied 24 hr after inoculation after 5 days relative to untreated-control.
The subject of test [20] is Monilinia fructicola. In words: Fungicidal activity against Monilinia fructicola isolate GADL193.04 infected peach fruit assessed as decrease in brown rot disease incidence at 0.135 ml/l applied 24 hr prior to inoculation after 5 days relative to untreated-control.
Test [21] deals with Monilinia fructicola. As to the kind of experiment: Fungicidal activity against Monilinia fructicola isolate GADL133.04 infected peach fruit assessed as decrease in brown rot disease incidence at 0.135 ml/l applied 24 hr prior to inoculation after 5 days relative to untreated-control.
For test [22], the system named is Monilinia fructicola. In words: Fungicidal activity against Monilinia fructicola isolate SCDL71.01 infected peach fruit assessed as decrease in brown rot disease incidence at 0.135 ml/l applied 24 hr prior to inoculation after 5 days relative to untreated-control.
Test [23] relates to Monilinia fructicola. In words: Fungicidal activity against Monilinia fructicola isolate SCDL71.01 infected peach fruit assessed as decrease in brown rot disease incidence at 0.135 ml/l applied 24 hr after inoculation after 5 days relative to untreated-control.
Test [24] has as its system Monilinia fructicola. In words: Fungicidal activity against Monilinia fructicola isolate GADL193.04 infected peach fruit assessed as decrease in sporulation area at 0.135 ml/l applied 24 hr after inoculation after 5 days relative to untreated-control.
Test [25] relates to Monilinia fructicola. As to the kind of experiment: Fungicidal activity against Monilinia fructicola isolate GADL133.04 infected peach fruit assessed as decrease in sporulation area at 0.135 ml/l applied 24 hr after inoculation after 5 days relative to untreated-control.
The subject of test [26] is Monilinia fructicola. As to the kind of experiment: Fungicidal activity against Monilinia fructicola isolate GADL133.04 infected peach fruit assessed as decrease in sporulation area at 0.135 ml/l applied 24 hr prior to inoculation after 5 days relative to untreated-control.
Test [27] has as its system Monilinia fructicola. As to the kind of experiment: Fungicidal activity against Monilinia fructicola isolate GADL193.04 infected peach fruit assessed as decrease in sporulation area at 0.135 ml/l applied 24 hr prior to inoculation after 5 days relative to untreated-control.
Test [28] deals with Monilinia fructicola. In words: Fungicidal activity against Monilinia fructicola isolate GADL133.04 infected peach fruit assessed as decrease in sporulation area at 0.131 ml/l applied 24 hr after inoculation after 5 days relative to untreated-control.
Test [29] has as its system Monilinia fructicola. As to the kind of experiment: Fungicidal activity against Monilinia fructicola isolate GADL133.04 infected peach fruit assessed as decrease in sporulation area at 0.131 ml/l applied 24 hr prior to inoculation after 5 days relative to untreated-control.
Test [30] relates to Monilinia fructicola. As to the kind of experiment: Fungicidal activity against Monilinia fructicola isolate SCDL71.01 infected peach fruit assessed as decrease in sporulation area at 0.131 ml/l applied 24 hr after inoculation after 5 days relative to untreated-control.
Test [31] has as its system Monilinia fructicola. In words: Fungicidal activity against Monilinia fructicola isolate GADL193.04 infected peach fruit assessed as decrease in brown rot disease incidence at 0.131 ml/l applied 24 hr after inoculation after 5 days relative to untreated-control.
For test [32], the system named is Monilinia fructicola. In words: Fungicidal activity against Monilinia fructicola isolate SCDL71.01 infected peach fruit assessed as decrease in sporulation area at 0.131 ml/l applied 24 hr prior to inoculation after 5 days relative to untreated-control.
In test [33] the test system is Monilinia fructicola. As to the kind of experiment: Fungicidal activity against Monilinia fructicola isolate SCDL71.01 infected peach fruit assessed as decrease in brown rot disease incidence at 0.131 ml/l applied 24 hr prior to inoculation after 5 days relative to untreated-control.
Test [34] has as its system Monilinia fructicola. As to the kind of experiment: Fungicidal activity against Monilinia fructicola isolate SCDL71.01 infected peach fruit assessed as decrease in brown rot disease incidence at 0.131 ml/l applied 24 hr after inoculation after 5 days relative to untreated-control.
The test system of test [35] is Monilinia fructicola. As to the kind of experiment: Fungicidal activity against Monilinia fructicola isolate GADL133.04 infected peach fruit assessed as decrease in brown rot disease incidence at 0.131 ml/l applied 24 hr prior to inoculation after 5 days relative to untreated-control.
Test [36] concerns Monilinia fructicola. In words: Fungicidal activity against Monilinia fructicola isolate GADL193.04 infected peach fruit assessed as decrease in brown rot disease incidence at 0.131 ml/l applied 24 hr prior to inoculation after 5 days relative to untreated-control.
Test [37] deals with Monilinia fructicola. As to the kind of experiment: Fungicidal activity against Monilinia fructicola isolate GADL133.04 infected peach fruit assessed as decrease in brown rot disease incidence at 0.131 ml/l applied 24 hr after inoculation after 5 days relative to untreated-control.
Test [38] deals with Monilinia fructicola. In words: Fungicidal activity against Monilinia fructicola isolate GADL193.04 infected peach fruit assessed as decrease in sporulation area at 0.131 ml/l applied 24 hr after inoculation after 5 days relative to untreated-control.
The subject of test [39] is Monilinia fructicola. As to the kind of experiment: Fungicidal activity against Monilinia fructicola isolate GADL193.04 infected peach fruit assessed as decrease in sporulation area at 0.131 ml/l applied 24 hr prior to inoculation after 5 days relative to untreated-control.

Activity calls are given as the source filed them. The rule behind the calls is not given here.

The record followed here is ChEMBL document CHEMBL3045830, “Differential effect of triazoles on mycelial growth and disease measurements of Monilinia fructicola isolates with reduced sensitivity to DMI fungicides” (Crop Prot, 2007).

Regarding `N#CC(CCc1ccc(Cl)cc1)(Cn1cncn1)c1ccccc1` (stereo not given) [FENBUCONAZOLE], the result in the test with Monilinia fructicola [1], with Monilinia fructicola [2], in the test on Monilinia fructicola [3], in the test on Monilinia fructicola [4], in the test with Monilinia fructicola [5] and in the test with Monilinia fructicola [6] was Active. Besides, the outcome in the test with Monilinia fructicola [8], in the test on Monilinia fructicola [9], in the test on Monilinia fructicola [10], in the test on Monilinia fructicola [11], in the test on Monilinia fructicola [12] and with Monilinia fructicola [13] was Active. In addition, the outcome in the test on Monilinia fructicola [14] and with Monilinia fructicola [15] was Active. The EC50 in the test on Monilinia fructicola [7] is recorded as 0.019 uL/ml.
Regarding `CC(C)(C)C(O)(CCc1ccc(Cl)cc1)Cn1cncn1` (stereo not given) [TEBUCONAZOLE], the result in the test with Monilinia fructicola [16], in the test on Monilinia fructicola [17], in the test with Monilinia fructicola [18], in the test on Monilinia fructicola [19], in the test with Monilinia fructicola [20] and in the test on Monilinia fructicola [21] was Active. Moreover, the outcome with Monilinia fructicola [10], with Monilinia fructicola [11], with Monilinia fructicola [22], in the test with Monilinia fructicola [23], in the test with Monilinia fructicola [24] and in the test on Monilinia fructicola [25] was Active. In addition, the result with Monilinia fructicola [26] and in the test with Monilinia fructicola [27] was Active. In addition, in the test on Monilinia fructicola [7], the EC50 is 0.018 uL/ml.
For `CCCC1COC(Cn2cncn2)(c2ccc(Cl)cc2Cl)O1` (stereo not given) [PROPICONAZOLE], the result with Monilinia fructicola [28], with Monilinia fructicola [29], in the test with Monilinia fructicola [30], with Monilinia fructicola [31], with Monilinia fructicola [32] and in the test on Monilinia fructicola [10] was Active. The result in the test with Monilinia fructicola [11], in the test on Monilinia fructicola [33], with Monilinia fructicola [34], in the test with Monilinia fructicola [35], in the test with Monilinia fructicola [36] and in the test with Monilinia fructicola [37] was Active. For the same compound, the outcome with Monilinia fructicola [38] and in the test on Monilinia fructicola [39] was Active. Further, the EC50 in the test on Monilinia fructicola [7] came out at 0.023 uL/ml.
